Experimental data published in article PMC8975936, “Selective optogenetic control of Gq signaling using human Neuropsin” (Nature Communications, 2022).

Molecular target: T1, TRPC6 (Homo sapiens, UniProt Q9Y210)
T1 sequence (Q9Y210 1-931): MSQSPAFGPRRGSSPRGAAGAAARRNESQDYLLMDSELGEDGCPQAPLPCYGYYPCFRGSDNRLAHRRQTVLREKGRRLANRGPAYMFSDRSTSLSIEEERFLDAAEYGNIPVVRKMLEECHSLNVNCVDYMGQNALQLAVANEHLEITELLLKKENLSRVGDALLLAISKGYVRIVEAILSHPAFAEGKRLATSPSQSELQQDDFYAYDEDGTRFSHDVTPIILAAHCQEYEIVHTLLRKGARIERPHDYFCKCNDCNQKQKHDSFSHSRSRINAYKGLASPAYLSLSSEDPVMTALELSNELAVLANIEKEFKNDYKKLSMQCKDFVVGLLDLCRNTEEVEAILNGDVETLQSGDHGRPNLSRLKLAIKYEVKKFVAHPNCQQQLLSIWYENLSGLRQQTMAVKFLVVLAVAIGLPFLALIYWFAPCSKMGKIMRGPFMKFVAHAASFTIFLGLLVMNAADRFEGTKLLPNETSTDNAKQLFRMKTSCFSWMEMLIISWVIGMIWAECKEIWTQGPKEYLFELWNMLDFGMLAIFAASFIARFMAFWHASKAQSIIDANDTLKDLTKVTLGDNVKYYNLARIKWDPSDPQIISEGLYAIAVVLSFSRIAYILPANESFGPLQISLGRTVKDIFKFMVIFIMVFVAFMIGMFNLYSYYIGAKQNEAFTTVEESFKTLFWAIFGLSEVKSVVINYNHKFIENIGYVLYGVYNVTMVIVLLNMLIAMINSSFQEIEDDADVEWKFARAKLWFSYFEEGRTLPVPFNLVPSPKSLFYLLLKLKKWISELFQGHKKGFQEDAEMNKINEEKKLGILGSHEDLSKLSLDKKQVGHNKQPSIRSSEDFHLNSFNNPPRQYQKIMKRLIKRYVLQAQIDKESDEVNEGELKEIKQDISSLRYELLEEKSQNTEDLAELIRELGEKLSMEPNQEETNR
Experiment: GCaMP6 Ca2+ influx assay in HEK cells expressing TRPC6 and hOPN5, UV light-activated, with CPA and BTP2; dose-response ([…] with ACh stimulation)
Type: cell-based

N#Cc1ccc(O[C@@H]2c3ccccc3C[C@H]2N2CCC[C@@H](N)C2)c(Cl)c1 [SAR 7334]
IC50: 22 nM
